Patent US12042478B2, “(R)-2-[(2H-1,3-benzodioxol-5-yl)methyl]pyrrolidine and processes for preparation, compositions and uses thereof” (Pharmala Biotech Inc., priority 2022, dated 2024)

Tested on: C57 and BTBR mice
Test: Compartment entries during social novelty test (proxy for locomotor stimulant effects)
Assay type: in vivo, mouse
Details: for total entries during social novelty test: relative to saline; for compartment entries during social novelty test, change of stimulation with dose: various doses
Text: Social preference chambers consisted of two polycarbonate boxes (13.5 cm wide×22.5 cm tall×31.0 cm deep), floored with rough-textured black ABS plastic, and connected to one another by a 1.25″ PVC T-junction. An infrared photobeam emitter/detector array was mounted at each intersection of the T-junction and each preference compartment, and as a mouse traversed the apparatus, it would break the photobeam upon entry to or exit from each preference compartment. Beam breaks started or stopped a counter on an interfaced computer, allowing automated collection of time spent in each compartment. At the end of each test, data were reported as time (in seconds) spent in each compartment, the number of entries into each compartment, and the average time spent in each compartment following an entry. Social preference tests were conducted in an iterative manner, with each test subject completing four distinct phases as described below. Between testing sessions, chambers were sanitized by wiping the insides with a disinfectant product provided by the UAMS Department of Laboratory Animal Medicine. At the end of the week (upon completion of all phases of the procedure), each apparatus was disassembled and all parts were sanitized. No food or water were available during social preference sessions, but were available in the home cage immediately afterwards.
Quantifying total entries into the preference compartments provides a proxy measurement for locomotor stimulant effects of the various doses of the various test drugs. This establishes a limit to the drug doses that can be tested in the social preference procedure, as induction of locomotor stimulant effects confounds preference assessments (because mice stop attending to the social stimuli in each compartment and instead spend their time engaged in locomotor behavior.) Motor activity varies across the distinct phases of social preference testing, in part because the habituation session is twice as long (30 minutes) as the novelty, sociability, and social novelty tests (15 minutes each), but also because mice emit high levels of exploratory behavior in novel environments. Thus, as familiarity with the test apparatus increases over successive exposures to the chambers, the number of entries decreases.
(Note that entries were collected for every test, but drug effects on entries during earlier phases may be less reliable due to the confounding influence of changing familiarity with the apparatus across phases.)

Row | SMILES | compartment entries during social novelty test (stimulation) (1 mg/kg, BTBR mice, compared to (R)-I, racemic MDMA and saline) | total entries during social novelty test (1 mg/kg, C57 mice) | compartment entries during social novelty test, change of stimulation with dose (BTBR mice) | compartment entries during social novelty test, change of stimulation with dose (C57 mice)
1 | c1cc2c(cc1C[C@@H]1CCCN1)OCO2 [(S)-I, (S)-2-[(2H-1,3-benzodioxol-5-yl)methyl]pyrrolidine] | substantially stimulated | only slightly increased | increase with increasing dose | reverses
2 | c1cc2c(cc1C[C@H]1CCCN1)OCO2 [(R)-I, (R)-2-[(2H-1,3-benzodioxol-5-yl)methyl]pyrrolidine] |  | only slightly increased |  | 
